Literature values in patent US20260028295A1, “COMPOSITIONS THAT CONTAIN SUSPENDED DICYANDIAMIDE, AND RELATED METHODS” (Keystone Specialty Chemicals LLC, priority 2022, published 2026).

Conditions: 25 degrees Celsius

solubility in water: 4.13 grams per 100 milliliter
SMILES: N#CNC(=N)N [Dicyandiamide]
